The values that follow come from patent US20250101041A1, “POSITIVE ALLOSTERIC MODULATORS OF THE MUSCARINIC ACETYLCHOLINE RECEPTOR M4” (Vanderbilt University, priority 2022, published 2025).

The target of this assay is T1, human mAChR M4 (Homo sapiens, UniProt P08173).
T1 construct: expressed in transfected cells; host or cells: CHO-K1 (American Type Culture Collection), stably expressing hM4 and Gqi5
T1 sequence (P08173 1-479): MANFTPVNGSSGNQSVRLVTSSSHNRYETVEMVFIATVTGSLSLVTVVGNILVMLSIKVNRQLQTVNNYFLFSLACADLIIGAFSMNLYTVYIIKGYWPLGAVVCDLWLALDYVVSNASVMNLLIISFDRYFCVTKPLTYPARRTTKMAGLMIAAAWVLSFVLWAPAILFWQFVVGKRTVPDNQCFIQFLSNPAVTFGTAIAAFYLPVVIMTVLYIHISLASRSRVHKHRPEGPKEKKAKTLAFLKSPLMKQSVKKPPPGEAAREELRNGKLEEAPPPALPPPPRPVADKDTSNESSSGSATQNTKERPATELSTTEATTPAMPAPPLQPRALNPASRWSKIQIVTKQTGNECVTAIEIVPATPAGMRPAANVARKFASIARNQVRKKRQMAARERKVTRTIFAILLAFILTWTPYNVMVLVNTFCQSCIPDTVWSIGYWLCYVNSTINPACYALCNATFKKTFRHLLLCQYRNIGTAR
In words: mAChR M4 cell-based functional assay: calcium mobilization (Fluo-4, FDSS), potentiation of EC20 acetylcholine response in hM4-Gqi5 CHO-K1 cells. The note with it: human M4; for Emax at 30 µM: CHO-K1, % ACh maximum at 30 μM; for EC50: potentiation of EC20 acetylcholine response, calcium mobilization. A digest of the protocol: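 Readout is the fluorescence-ratio rise at 1 Hz on FDSS, with PAM activity taken as concentration-dependent enhancement of the EC20 acetylcholine response, fitted four-parameter for EC50/Emax. hM4-Gqi5 CHO-K1 cells carried Fluo-4 AM dye; test compounds (11 points, 1:3) preceded EC20 acetylcholine additions at 144 s and 230 s.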

As usually defined, the Emax is the size of the effect at its maximum, as opposed to the concentration needed. A word on the EC50: it is the concentration that produces a half-maximal response. As for `Cc1cc(=O)n2nc(N3CCc4ncc(N5CCSCC5)cc4C3)c(C)c(C)c2n1` [Compound 2-46, 2,8,9-trimethyl-7-(3-thiomorpholino-7,8-dihydro-1,6-naphthyridin-6(5H)-yl)-4H-pyrimido[1,2-b]pyridazin-4-one], the maximal response (Emax) at 30 µM was determined as 99% and the EC50 came to 0.308 µM.
For `Cc1cc2nccc(=O)n2nc1N1CCc2ncc(-c3c(C)noc3C)cc2C1` [Compound 1-416, 7-(3-(3,5-dimethylisoxazol-4-yl)-7,8-dihydro-1,6-naphthyridin-6(5H)-yl)-8-methyl-4H-pyrimido[1,2-b]pyridazin-4-one] the same measures were 89% and 0.797 µM.
Taken in the same sequence, the figures for `COCc1cc(=O)n2nc(N3CCc4ncc(-c5cccs5)cc4C3)c(C)cc2n1` [Compound 1-367, 2-(methoxymethyl)-8-methyl-7-(3-(thiophen-2-yl)-7,8-dihydro-1,6-naphthyridin-6(5H)-yl)-4H-pyrimido[1,2-b] pyridazin-4-one] were 71% and 0.141 µM.
`Cc1cc2nccc(=O)n2nc1N1CCc2ncc(-c3cnn4c3COCC4)cc2C1` [Compound 1-325, 7-(3-(6,7-dihydro-4H-pyrazolo[5,1-c][1,4]oxazin-3-yl)-7,8-dihydro-1,6-naphthyridin-6(5H)-yl)-8-methyl-4H-pyrimido[1,2-b]pyridazin-4-one]: the Emax at 30 µM is 68% and the EC50 was 0.921 µM.
As for `Cc1cc(=O)n2nc(N3CCc4ncc(-c5cnn(-c6ccccc6F)c5)cc4C3)c(C)c(C)c2n1` [Compound 1-180, 7-(3-(1-(2-fluorophenyl)-1H-pyrazol-4-yl)-7,8-dihydro-1,6-naphthyridin-6(5H)-yl)-2,8,9-trimethyl-4H-pyrimido[1,2-b]pyridazin-4-one], the Emax at 30 µM is 63% and the EC50 was 2.47 µM.
Take `Cc1c(N2CCc3ncc(-c4cnn(C5COC5)c4)cc3C2)nn2c(=O)cc(C(F)F)nc2c1C` [Compound 1-309, 2-(difluoromethyl)-8,9-dimethyl-7-(3-(1-(oxetan-3-yl)-1H-pyrazol-4-yl)-7,8-dihydro-1,6-naphthyridin-6(5H)-yl)-4H-pyrimido[1,2-b]pyridazin-4-one]: the Emax at 30 µM was determined as 88% and the EC50 amounted to 0.203 µM.
Taken in the same sequence, the figures for `Cc1cc2nccc(=O)n2nc1N1CCc2ncc(-c3cccc4c3CCC4)cc2C1` [Compound 1-436, 7-(3-(2,3-dihydro-1H-inden-4-yl)-7,8-dihydro-1,6-naphthyridin-6(5H)-yl)-8-methyl-4H-pyrimido[1,2-b]pyridazin-4-one] were 78% and 0.484 µM.
Taken in the same sequence, the figures for `COc1cncc(-c2cnc3c(c2)CN(c2nn4c(=O)cc(C)nc4c(C)c2C)CC3)c1` [Compound 1-199, 7-(3-(5-methoxypyridin-3-yl)-7,8-dihydro-1,6-naphthyridin-6(5H)-yl)-2,8,9-trimethyl-4H-pyrimido[1,2-b]pyridazin-4-one] were 74% and 0.526 µM.
For `Cc1cc2nc(C(F)F)cc(=O)n2nc1N1CCc2ncc(-n3cccn3)cc2C1` [Compound 2-26, 7-(3-(1H-pyrazol-1-yl)-7,8-dihydro-1,6-naphthyridin-6(5H)-yl)-2-(difluoromethyl)-8-methyl-4H-pyrimido[1,2-b]pyridazin-4-one] the same measures were 87% and 0.105 µM.
Turning to `Cc1ccc(F)cc1-c1cnc2c(c1)CN(c1nn3c(=O)ccnc3c(C)c1C)CC2` [Compound 1-194, 7-(3-(5-fluoro-2-methylphenyl)-7,8-dihydro-1,6-naphthyridin-6(5H)-yl)-8,9-dimethyl-4H-pyrimido[1,2-b]pyridazin-4-one], the Emax at 30 µM worked out at 83% and the EC50 worked out at 0.093 µM.
For `Cc1cc2nc(C(F)(F)F)cc(=O)n2nc1N1CCc2ncc(C(F)(F)F)cc2C1` [Compound 1-17, 8-methyl-2-(trifluoromethyl)-7-(3-(trifluoromethyl)-7,8-dihydro-1,6-naphthyridin-6(5H)-yl)-4H-pyrimido[1,2-b]pyridazin-4-one] the same measures were 79% and 0.105 µM.
As to `Cc1cc(=O)n2nc(N3CCc4ncc(-c5cncc(F)c5)cc4C3)c(C)c(C)c2n1` [Compound 1-134, 7-(3-(5-fluoropyridin-3-yl)-7,8-dihydro-1,6-naphthyridin-6(5H)-yl)-2,8,9-trimethyl-4H-pyrimido[1,2-b]pyridazin-4-one], the Emax at 30 µM stood at 88% and the EC50 is 0.7 µM.
Regarding `Cc1cc2nccc(=O)n2nc1N1CCc2ncc(Nc3ccc(F)cc3)cc2C1` [Compound 2-63, 7-(3-((4-fluorophenyl)amino)-7,8-dihydro-1,6-naphthyridin-6(5H)-yl)-8-methyl-4H-pyrimido[1,2-b]pyridazin-4-one], the Emax at 30 µM came out at 91% and the EC50 amounted to 0.079 µM.
For the compound `Cc1cc2nccc(=O)n2nc1N1CCc2ncc(N3CC4(COC4)C3)cc2C1` [Compound 2-151, 7-(3-(2-oxa-6-azaspiro[3.3]heptan-6-yl)-7,8-dihydro-1,6-naphthyridin-6(5H)-yl)-8-methyl-4H-pyrimido[1,2-b]pyridazin-4-one], the Emax at 30 µM came out at 56%.
Turning to `Cc1cc2nccc(=O)n2nc1N1CCc2ncc(N3CCOC(c4ccccc4)C3)cc2C1` (stereo in doubt) [Compound 2-96, (R)-8-methyl-7-(3-(2-phenylmorpholino)-7,8-dihydro-1,6-naphthyridin-6(5H)-yl)-4H-pyrimido[1,2-b]pyridazin-4-one], the Emax at 30 µM stood at 42% and the EC50 was 1.43 µM.
For `Cc1cc2nccc(=O)n2nc1N1CCc2ncc(Nc3cccc4c3OCCO4)cc2C1` [Compound 2-72, 7-(3-((2,3-dihydrobenzo[b][1,4]dioxin-5-yl)amino)-7,8-dihydro-1,6-naphthyridin-6(5H)-yl)-8-methyl-4H-pyrimido[1,2-b]pyridazin-4-one] the same measures were 69% and 0.549 µM.
Taken in the same sequence, the figures for `Cc1cc2nccc(=O)n2nc1N1CCc2ncc(-c3cccnc3C(F)F)cc2C1` [Compound 1-425, 7-(3-(2-(difluoromethyl)pyridin-3-yl)-7,8-dihydro-1,6-naphthyridin-6(5H)-yl)-8-methyl-4H-pyrimido[1,2-b]pyridazin-4-one] were 79% and 0.836 µM.
For `COCc1cc(=O)n2nc(N3CCc4ncc(-c5ccc(OC(F)F)nc5)cc4C3)c(C)c(C)c2n1` [Compound 1-373, 7-(3-(6-(difluoromethoxy)pyridin-3-yl)-7,8-dihydro-1,6-naphthyridin-6(5H)-yl)-2-(methoxymethyl)-8,9-dimethyl-4H-pyrimido[1,2-b]pyridazin-4-one] the same measures were 64% and 0.299 µM.
For `Cc1cc2nccc(=O)n2nc1N1CCc2ncc(-c3ccc(C(F)(F)F)nc3)cc2C1` [Compound 1-66, 8-methyl-7-(3-(6-(trifluoromethyl)pyridin-3-yl)-7,8-dihydro-1,6-naphthyridin-6(5H)-yl)-4H-pyrimido[1,2-b]pyridazin-4-one], the maximal response (Emax) at 30 µM came to 77% and the EC50 is 0.832 µM.
`Cc1cc2nccc(=O)n2nc1N1CCc2ncc(-c3cnn(C4CC4)c3)cc2C1` [Compound 1-8, 7-(3-(1-cyclopropyl-1H-pyrazol-4-yl)-7,8-dihydro-1,6-naphthyridin-6(5H)-yl)-8-methyl-4H-pyrimido[1,2-b]pyridazin-4-one]: the maximum response (Emax) at 30 µM amounted to 81% and the EC50 came out at 0.308 µM.
